Experimental data from paper PMC7504104, “Dietary Intake of Rosmarinic Acid Increases Serum Inhibitory Activity in Amyloid A Aggregation and Suppresses Deposition in the Organs of Mice” (International Journal of Molecular Sciences, 2020).

Molecular target: T1, recombinant mouse SAA 1.1 (mSAA) (Mus musculus, UniProt P05366)
T1 construct: gene Saa1; cDNA in pET-15b, expressed in E. coli Rosetta, Ni Sepharose purified
T1 sequence (P05366 20-122): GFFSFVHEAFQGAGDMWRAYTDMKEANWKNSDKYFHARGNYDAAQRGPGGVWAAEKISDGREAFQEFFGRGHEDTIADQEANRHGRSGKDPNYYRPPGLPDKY
Assay: quantum-dot fluorescence imaging of amyloid aggregation inhibition (MSHTS)
Assay type: biochemical

EC50: 33.2 ± 2.19 µM
SMILES: O=C(/C=C/c1ccc(O)c(O)c1)O[C@H](Cc1ccc(O)c(O)c1)C(=O)O [RA, rosmarinic acid]
